Experimental data as given in a melting point compilation (Tetko et al.; mined from patent text by program, amines drawn as free bases though some values may be those of a salt).

SMILES	melting point
Cn1c(=O)c2c(nc(C=Cc3cccc(C(F)(F)F)c3)n2C)n(C)c1=O	232 to 236 °C
CC1(C)Oc2cc(Cl)c(C#N)cc2C2OC21 (stereo not given)	129 to 132 °C
CC(=O)C1(O)CCC2C3CCC4=CC(=O)CCC4(C)C3C(Cl)CC21C (stereo not given)	193 to 196 °C
Nc1nnc(-c2ccc(Cl)c(C(F)(F)F)c2)c(N)n1	228 to 229 °C
CC(=O)n1cc(Cl)c(-c2cccc(Cl)c2)c1	88 to 90 °C
Oc1ccc(Cl)cc1CN1CCCCC1	53 to 56 °C
Cc1cccc(C(=O)Nc2nc3ccccc3c(NCc3ccccc3)c2C#N)c1	230 °C
CC(C)(Nc1cc(Cl)ccc1[N+](=O)[O-])C(=O)O	146 to 147 °C
O=C(O)c1cccc(Oc2ccc(C(F)(F)F)cn2)c1	146 °C
CCOC(=O)N1CC(C)N(C(C)C(O)(Cn2cncn2)c2ccc(F)cc2F)CC1C (stereo not given)	57 to 59 °C
CC(C)CCOC(=O)c1ccc2c(=O)c3ccccc3ccc2c1	26 to 30 °C
CCCCCCC(C)(C)c1ccc(C2(O)CCCNC2)c(O)c1 (stereo not given)	147 °C
CCOCn1cc(F)c(=O)n(C(=O)c2cccc(C(=O)Oc3nc(OC(=O)c4ccc(Cl)cc4)ccc3C#N)c2)c1=O	156 to 158 °C
Clc1ccc(C2=CCc3cc(Br)cnc3O2)cc1Cl	138 to 140 °C
CSC1NC(=O)N(C2CCCCC2)C(=O)N1N=C(C)C (stereo not given)	111 to 112 °C
CC(C)(C)CCN1C(=O)C(NC(=O)Nc2ccccc2)C(=O)N(c2ccccc2F)c2ccccc21 (stereo not given)	271 to 272 °C
Cc1ccc(-c2nc(C)c(C)c(=O)[nH]2)cc1	250 °C
CC[C@H]1[C@@H](N)CN1c1cc2c(cc1F)c(=O)c(C(=O)O)cn2C1CC1 (relative stereo)	236 to 237 °C
CC(C)(C)c1onc(NS(=O)(=O)c2ccccc2)c1Br	139 to 141 °C
Cc1ccc(C(=O)NC/C=C\COc2cc(CN3CCCCC3)ccn2)s1	71 to 73 °C
CCCn1c(=O)sc2cc(F)c(-n3c(=O)cc(CC)[nH]c3=O)cc21	> 250 °C
O=S1CCN(c2ccc(-n3cc(CN=C=S)nn3)cc2F)CC1	182 to 184 °C
CSc1cc(S(F)(F)(F)(F)F)ccc1C(=O)O	150 to 152 °C
CN(CC(O)c1cccc(OCc2ccccc2)c1)C(=O)c1cnc(N(C)C)nc1-c1ccc(Cl)c(Cl)c1 (stereo not given)	68 to 70 °C

SMILES	melting point
COCCOc1cc2c(cc1C#Cc1ccccc1)NC(=O)CC(c1cccc(-n3ccnc3)c1)=N2	187 to 189 °C
Cc1[nH]cnc1CCc1ccc2nc(N)sc2c1	191 to 193 °C
CC(=O)Nc1cc(C(C)(C)C)nn1C(CCN1C(=O)c2ccccc2C1=O)=NOS(=O)(=O)c1ccc(C)cc1	195 to 201 °C
Fc1ccc(-n2nccc2-c2ccnc(NCc3ccccc3)c2)cc1	125 to 127 °C
CCCc1c(OC(C)=O)ccc2oc(Cc3ccc(OC)cc3)c(C)c12	39 to 41 °C
Brc1cccc2c1Sc1c(Br)cccc1S2	176 to 178 °C
COc1ccc(-c2[nH]nc3c2C(=O)c2c(NC(=O)C4CCC4)cccc2-3)cc1	297 °C
CN1C(=O)c2cc(N/C(=C3\C(=O)Nc4ccc([N+](=O)[O-])cc43)c3ccccc3)ccc2C(C)(C)C1=O	169 to 171 °C
CCOc1nc2ccccc2nc1NC(=O)N1CCN(c2cccc(C)c2C)CC1	108 to 110 °C
CN(C)S(=O)(=O)c1cc(-c2ccccc2)ccc1S(N)(=O)=O	197 to 200 °C
Cn1nc(-c2ccc(Cl)cc2)c2c(=O)n3c(nc21)SCC3	256 to 257 °C
CC(=O)OC1(C)C=CC2=NC(c3cc(C)c(O)c(C)c3)=CC2=C1 (stereo not given)	161 to 162 °C
COC(=O)CCCOc1ccc(CNC(=O)C2Cc3ccccc3N2S(=O)(=O)c2ccc(-c3cccc(C(F)(F)F)c3)cc2)cc1 (stereo not given)	50 °C
O=c1c(Cl)c(N2CCOCC2)oc2ccccc12	127 to 128 °C
O=S(=O)(Cc1ccccc1)N1CCC[C@H]1C(=S)OCCCc1ccccc1	62 to 64 °C
CC(=O)OC1CSC(Oc2cncc(-c3ccc(C#N)cc3C)c2)C(OC(C)=O)C1OC(C)=O (stereo not given)	136 to 138 °C
CC1CCN(CC#CCN2C(=O)c3cccc4c3N(CC4)c3ccc(Br)cc32)CC1	154 to 155 °C
CCC(=O)N[C@@H](C)C(=O)N1CCC[C@H]1C(=O)NC(C)C	173 to 175 °C
COc1ccc(C(=C/C=C/C(=O)Oc2ccc([N+](=O)[O-])cc2)c2ccc(OC)cc2)cc1	121 to 123 °C
COc1ccc(Cn2ncn(-c3ccc(N4CCN([C@H](C)[C@](O)(Cn5cncn5)c5ccc(F)cc5F)CC4)cc3)c2=O)cc1	178 to 179 °C
CCOC(=O)c1ncsc1-c1cccc(OCc2cccc(C#N)c2)c1	85 °C
Cc1c(C)c2c(c(C)c1O)CCC(C)(COc1ccc(CC3SC(=N)NC3=O)cc1)O2 (stereo not given)	205 to 207 °C
COc1ccccc1Cc1ccc(N)c(C#N)c1	77.5 to 78.5 °C
Cn1cc(S(=O)(=O)NCc2ccccc2)c(=O)c2ccc(Cl)cc21	208 to 210 °C

SMILES	melting point
[N-]=[N+]=NCCCc1cc(-c2ccccc2)n(-c2ccc(S(N)(=O)=O)cc2)n1	114 to 116 °C
OC1Cc2cc(Br)ccc2Sc2ccccc21 (stereo not given)	108 to 110 °C
COc1cc(NCCN(Cc2ccccc2)Cc2ccccc2)ccc1C(N)=O	136 to 138 °C
O=S(=O)(c1ccc(OCCCBr)cc1)c1c(-c2ccccc2)cn2ccccc12	199 °C
COC(=O)[C@H]1C[C@H]2C(=O)NCCN2C1	70 to 74 °C
COc1ccc(-c2nc(-c3ccc(OS(=O)(=O)O)cc3)cs2)cc1OC	248 to 249 °C
CC(C)[Si](Oc1ccc([C@H](O)[C@H](C)N2CCC(O)(c3ccccc3)CC2)cc1)(C(C)C)C(C)C (relative stereo)	148 to 151 °C
O=C(Cc1ccccc1)NC1C(=O)N2CC(C(=O)OCc3ccc([N+](=O)[O-])cc3)SC12 (stereo not given)	181 to 183 °C
CCOC(=O)c1c(CN(CC)CC)nc2sc3c(c2c1-c1ccc(OC)c(OC)c1)CCN(C(=O)c1ccccc1)C3	86 to 87 °C
Cn1cc(-c2ccccc2)c(=O)c(-c2ccc([N+](=O)[O-])cc2)c1	212 to 214 °C
COc1cc2c(cc1OC)[C@@H]1CN(C)CC[C@@H]1N=C2c1ccc(C)c(C)c1 (relative stereo)	182 to 184 °C
CC(C)c1c(-c2ccncc2)[nH]c2ccc(C3=NNC(=O)CC3)cc12	> 300 °C
CC1(C)[C@H](Cc2noc(C(F)(F)F)n2)CC[C@]1(C)NCC(=O)N1C[C@@H](F)C[C@H]1C#N	130 to 131 °C
COc1ccc(C(=O)Nc2ccc3ccc(-c4ccccc4)nc3n2)cc1	187 °C
CN1C(=O)CCC2(C)c3ccc(Sc4ccc(Cl)cc4)cc3CCC12 (single isomer, unassigned; (+))	122 to 124 °C
COC(=O)c1ccc(-c2nc3cc([N+](=O)[O-])c([N+](=O)[O-])cc3[nH]2)cc1	239 to 240 °C
Cc1c(OCC2CO2)noc1-c1ccccc1 (stereo not given)	87 to 88 °C
CC(=O)OCC1OC(n2cc(C(N)=S)nn2)C(OC(C)=O)C1OC(C)=O (stereo not given)	110 to 112 °C
CCc1c(C(=O)c2ccc(OC)cc2)c2cccc3c2n1C(CN1CCOCC1)CO3 (stereo not given)	186 to 187 °C
CON(C)C(=O)CCCCCCNC(=O)c1cn2c3c(cccc13)CCC2	61 to 62 °C
O=C(OCc1ccccc1)N1CCC(C(=O)O)(c2ccccc2)CC1	142 to 144 °C
Oc1c2c(nn1-c1cc(C(F)(F)F)ccn1)CCc1ccccc1-2	161 to 162 °C
C=C1CC2C3CCC4=CC(=O)C=CC4(C)C3=CCC2(C)C1(O)C(C)=O (stereo not given)	185 to 190 °C
CN(CCN(O)C(N)=O)Cc1cccc(Oc2ccc(Cl)c(Cl)c2)c1	107 to 109 °C

SMILES	melting point
c1ccc(Oc2ccc3[nH]c4c(c3c2)CNCC4)cc1	179 °C
Cc1cccc(C)c1NNC(=O)c1cccc2c1CC(N(C(=O)C(F)(F)F)C1CC1)CO2 (stereo not given)	146 to 149 °C
CS(=O)(=O)c1ccc(-n2cc(C(F)(F)F)nc2-c2ccsc2)cc1	194 to 197 °C
CCn1c(=O)c2[nH]c(/C=C/c3cc4c(cc3Br)OCO4)nc2n(CC)c1=O	> 270 °C
O=C(NCc1ccccc1)c1cc2ccnc(Cl)c2[nH]1	217 to 220 °C
O=c1[nH]c(=S)[nH]cc1-c1ccccc1	269 to 271 °C
CC1C(=O)N(c2ccc(O)cc2)C(=S)N1c1ccc(Oc2ccc(F)cc2)cc1 (stereo not given)	148 °C
CCOC(=O)c1nc2ccccn2c1-c1ccccc1	106 °C
Cc1nc2ccc(-c3ccc(OCC4(N)COC4)cc3)nn2c1-c1cnc(N)c(C(F)(F)F)c1	198 to 200 °C
O=c1cc(-c2ccccc2)c2ccc(COc3cc(F)cc(-c4ccccc4)c3)cc2o1	129 to 131 °C
O=C1CC(c2ccc(Cl)c(Cl)c2)Cc2[nH]c3ccc(Cl)cc3c(=O)c21 (stereo not given)	> 325 °C
CCCOc1ccccc1-c1cc(C)c(C(N)=O)c(=O)[nH]1	239 to 242 °C
OCc1ccc(/C=C/c2ccncc2)cc1	211 to 213 °C
CCC1(c2cccs2)OCC(=O)Nc2ccc(-c3csc(C#N)c3)cc21 (stereo not given)	202 to 204 °C
CCc1nc(CN(C)C(=O)N[C@H](C(=O)N[C@@H](Cc2ccccc2)C[C@H](O)[C@H](Cc2ccccc2)NC(=O)OCc2cncs2)C(C)C)cs1	70 to 71 °C
CN(C(=O)c1ccc(Cn2ccc3ncnc-3c2)o1)C1CCCCC1	189 to 190 °C
CCCc1nc(Nc2ccc(F)c(Cl)c2)nc(NC2CCN(S(C)(=O)=O)CC2)n1	86 to 87 °C
Cc1ncncc1NC(=O)c1ccc(-n2nc(C(F)(F)F)cc2C2CC2)c(F)c1	150 to 152 °C
COC(=O)C(O)C(O)C(O)C(O)C(=O)OC (stereo not given)	90.2 to 90.7 °C
CC(=O)OC1CC(C)(C)N(OC(=O)C23CC4CC(CC(C4)C2)C3)C(C)(C)C1	132 to 134 °C
CC(C)(C)c1cc(CN2CC(N(O)C(N)=O)C2)cc(C(C)(C)C)c1O	90 to 95 °C
CCOC(=O)c1cn(CC)c2nc3cc(F)c(F)cc3cc2c1=O	270 °C
CN1C2C=C(c3c[nH]c(-c4ccc(F)cc4)c3-c3ccncc3)CC1CC2 (stereo not given)	243 to 245 °C
